Test results published in the supplement of paper PMC13380429.
± gives the standard deviation of the averaged measurements.

Assays:
Settings in all cases: 72 h
[1] = tested on: HepG2; assay: drug sensitivity score (DSS) for viability; higher = more toxic; extreme values may be limits of the assay
[2] = tested on: Vero E6; assay: as above
[3] = tested on: U2OS; assay: as above
[4] = tested on: Calu-3; assay: as above
[5] = tested on: Caco-2; assay: as above
[6] = tested on: HepG2; assay: relative viability EC50 (midpoint between 100% and the lowest measured viability); higher = less toxic
[7] = tested on: Vero E6; assay: as above
[8] = tested on: U2OS; assay: as above
[9] = tested on: Calu-3; assay: as above
[10] = tested on: HepG2; assay: cell viability relative to DMSO; higher = less toxic
[11] = tested on: Vero E6; assay: as above
[12] = tested on: U2OS; assay: as above
[13] = tested on: Calu-3; assay: as above
[14] = tested on: Caco-2; assay: as above
[15] = tested on: Caco-2; assay: relative viability EC50 (midpoint between 100% and the lowest measured viability); higher = less toxic

Structure (SMILES)	drug sensitivity score [1]	drug sensitivity score [2]	drug sensitivity score [3]	drug sensitivity score [4]	drug sensitivity score [5]	relative viability EC50 [6] [µM]	relative viability EC50 [7] [µM]	relative viability EC50 [8] [µM]	relative viability EC50 [9] [µM]	cell viability ([10]; 1 nM) [%]	cell viability ([10]; 10 nM) [%]	cell viability ([10]; 100 nM) [%]	cell viability ([10]; 1000 nM) [%]	cell viability ([10]; 10000 nM) [%]	cell viability ([11]; 1 nM) [%]	cell viability ([11]; 10 nM) [%]	cell viability ([11]; 100 nM) [%]	cell viability ([11]; 1000 nM) [%]	cell viability ([11]; 10000 nM) [%]	cell viability ([12]; 1 nM) [%]	cell viability ([12]; 10 nM) [%]	cell viability ([12]; 100 nM) [%]	cell viability ([12]; 1000 nM) [%]	cell viability ([12]; 10000 nM) [%]	cell viability ([13]; 1 nM) [%]	cell viability ([13]; 10 nM) [%]	cell viability ([13]; 100 nM) [%]	cell viability ([13]; 1000 nM) [%]	cell viability ([13]; 10000 nM) [%]	cell viability ([14]; 1 nM) [%]	cell viability ([14]; 10 nM) [%]	cell viability ([14]; 100 nM) [%]	cell viability ([14]; 1000 nM) [%]	cell viability ([14]; 10000 nM) [%]	relative viability EC50 [15] [µM]
NCCCCN=C(N)N [agmatine]	0	0	0	0	3.4	> 10	> 10	> 10	> 10	95.5	96.6	99.4	110	94.7	103	97.6	97.4	104	88.6	103	96.3	100	100	99.2	94.8	95.7	93.2	89.4	99.9	114	82.8	92.5	82.5	72.2	–
CC(=O)Oc1ccc(C(c2ccc(OC(C)=O)cc2)c2ccccn2)cc1 [bisacodyl]	0	1	0.6	0.1	4.4	> 10	> 10	> 10	> 10	98.3	99.5	104	95.1	100	99.6	94.1	97.1	95.7	80.7	101	102	100	89.9	87.3	111	105	102	99.2	88.2	92.8	84.9	107	80.5	60.3	–
CO[C@@H](C(=O)N1Cc2[nH]nc(NC(=O)c3ccc(N4CCN(C)CC4)cc3)c2C1)c1ccccc1 [danusertib]	10.7	0.4	6.8	7.5	2.9	0.192	> 10	1.35	–	93.4	95.9	78.3	55.8	42.6	104	101	104	98.6	84.2	99.6	103	93.9	74.8	31	89	93.8	77.1	76.9	52.9	94.7	95.4	94.9	82.9	71.7	–
Cc1cc(C)cc(NC(=O)Cc2ccc(OC(C)(C)C(=O)O)cc2)c1 [efaproxiral]	0	0	0	0	–	> 10	> 10	> 10	> 10	107	107	104	101	96.4	98.5	97.5	101	101	98.2	97.7	95.7	98.9	93.5	94.3	98.6	103	104	101	105	–	–	–	–	–	–
N#Cc1nn(-c2c(Cl)cc(C(F)(F)F)cc2Cl)c(N)c1[S+]([O-])C(F)(F)F (stereo unspecified) [fipronil]	0	0	–	0	0	> 10	> 10	–	> 10	98.2	109	97.8	91.1	103	106	102	99.2	101	102	–	–	–	–	–	99.3	92	102	103	102	103	105	102	96.7	94.1	> 10
CCCCN(CCCC)CCC(O)c1cc2c(Cl)cc(Cl)cc2c2cc(C(F)(F)F)ccc12 (stereo unspecified) [halofantrine]	2.1	1.9	0.2	0	0	–	> 10	> 10	> 10	95.5	82.1	97.4	92.1	71.8	109	103	99.9	83.3	83.8	95.2	102	99.5	96.3	88	90.1	93.3	103	109	88.1	95	122	104	106	88.7	> 10
COc1ccc(-c2cc(=O)c3c(OC)c(OC)c(OC)c(OC)c3o2)cc1OC [nobiletin]	3.4	0	0	0.2	1.1	–	> 10	> 10	> 10	96.9	108	102	83.2	68.6	102	104	94.5	93.5	91.6	94.4	103	94	99.7	92.3	99.5	111	106	104	83.8	86.4	99.4	100	95.3	80.9	> 10
CCC[C@H](N[C@@H](C)C(=O)N1[C@H](C(=O)O)C[C@@H]2CCCC[C@@H]21)C(=O)OCC [perindopril]	0	0	–	0	0	> 10	> 10	–	> 10	99.1	105	95.8	97.2	92.4	99.4	105	98.1	97.3	98.8	–	–	–	–	–	97	86.8	93.1	90.1	102	107	99.9	94.4	101	99.5	> 10
Cc1ccc(=O)n(-c2ccccc2)c1 [pirfenidone]	0	0	–	0	0	> 10	> 10	–	> 10	91.7	100	106	98.8	104	107	104	105	103	100	–	–	–	–	–	103	95.3	107	103	109	99.3	93.6	102	99.7	100	> 10
CC(C)(C)C(=O)OCOC(=O)[C@@H]1N2C(=O)[C@@H](NC(=O)[C@H](N)c3ccccc3)[C@H]2SC1(C)C [pivampicillin]	0.2	0	0	0	–	> 10	> 10	> 10	> 10	114	97.7	91.9	82	96.9	103	104	101	99.4	102	98.4	94	101	93.3	97.6	110	108	97.7	98.4	117	–	–	–	–	–	–
O=[N+]([O-])c1cn2c(n1)OC[C@@H](OCc1ccc(OC(F)(F)F)cc1)C2 [pretomanid]	0	0	–	0	0	> 10	> 10	–	> 10	106	103	102	96.3	100	111	97.6	103	95.8	102	–	–	–	–	–	101	96.5	96.4	112	103	98.3	100	102	99.3	92.6	> 10
O=C(O)CCn1c2c(c3ccccc31)C[C@H](NS(=O)(=O)c1ccc(F)cc1)CC2 [ramatroban]	0	0	0	0	–	> 10	> 10	> 10	> 10	104	95.6	103	93.6	110	98	95.7	92.4	97.4	104	100	98.4	95.8	101	104	92.4	97.7	94.1	104	101	–	–	–	–	–	–
C[C@@]1(C(=O)O)NCCc2cc(O)c(O)cc21 [salsolinol-1-carboxylic-acid]	0	0	–	0	0	> 10	> 10	–	> 10	100	106	95	94.3	107	100	95.2	94.8	92.2	104	–	–	–	–	–	98.9	105	103	106	107	103	101	97.4	109	106	> 10
CC1=C(/C=C/C(C)=C/C=C/C(C)=C/C(=O)O)C(C)(C)CCC1 [tretinoin]	0	0	0	1.2 ± 0.28	0.9 ± 1.1	> 10	> 10	> 10	> 10	99.8 ± 2.9	102 ± 7	109.5 ± 0.64	101 ± 3.5	103 ± 6.5	102 ± 5.2	101 ± 1.9	99.7 ± 3.3	98.3 ± 2.1	101 ± 1.9	98.8 ± 0.28	95.3 ± 4	94.3 ± 2.3	95.6 ± 0.57	90.7 ± 0.85	106 ± 6.3	97.7 ± 1.7	106 ± 3.3	87.5 ± 2.5	85.4 ± 4.5	103 ± 8.2	102 ± 10	97.5 ± 1.4	101 ± 1.9	74.5 ± 18	–
C[C@]12CC[C@H]3[C@@H](CC[C@@]45O[C@@H]4C(O)=C(C#N)C[C@]35C)[C@@H]1CC[C@@H]2O [trilostane]	–	0	0	–	0	–	> 10	> 10	–	–	–	–	–	–	91.3	98.5	92.8	92.4	102	98.8	103	105	105	97.9	–	–	–	–	–	105	92.9	99.9	97.6	99.3	> 10
FC(F)(F)c1cccc(C2=CCN(CCc3ccc4ccccc4c3)CC2)c1 [xaliproden]	–	0	0	0	0	–	> 10	> 10	> 10	–	–	–	–	–	100	89.7	92.7	92.7	104	98.4	96.3	99.5	105	111	109	105	95.5	109	95.9	106	88.6	89	104	107	> 10
